# Results as given in US20250000864A1, “GONADOTROPIN-RELEASING HORMONE ANTAGONIST, AND PREPARATION METHOD THEREFOR AND USE THEREOF” (SHANDONG LUYE PHARMACEUTICAL CO., LTD., priority 2021, published 2025).
# Where two headings read alike, the source gives them in different places.
# Columns and labels:
# [1] = Pharmacokinetics in SD rats (i.v. and i.g.); assay type: in vivo; conditions: for bioavailability: i.g 12 mg/kg vs i.v 1 mg/kg, read-out: F (absolute bioavailability)
# Method: (§1) Instrument: water purification equipment, Millipore; electronic balance, METTLER TOLEDO; high-speed benchtop centrifuge, Thermo; water bath thermostatic oscillator, Shanghai Yiheng Technical Co., Ltd.; vortex oscillator, Thermo; LC-MS/MS, AB SCIEX.
# (§2) Method: all compounds were formulated in DMSO and 20% solutol. In the pharmacokinetic experiment, the administration dose for the intravenous group (i.v) was 1 mg/kg, and the administration dose for the intragastric group (i.g) was 12 mg/kg, each group containing 3 rats. Blood was collected from the orbit of the rats before (0 h) the administration and at set time points after administration. In the tissue distribution experiment, the rats were subjected to intragastric administration at a dose of 12 mg/kg. […] The […] in a heparinized EP tube and centrifuged at 13,500 rpm for 10 min to isolate the plasma. The pituitary was homogenized with water in a certain proportion. The plasma and pituitary homogenates were pre-treated and then analyzed by LC-MS/MS to determine the concentration of the test substances in the plasma and the pituitary. The plasma drug concentration data were processed in a non-compartmental model using WinNonlin™ Version 6.3 (Pharsight, Mountain View, CA) pharmacokinetic software.
# human GnRHR [2] = target: T1, human GnRHR (Homo sapiens (Human), UniProt P30968); assay: In vitro antagonistic activity screening (FLIPR calcium fluorescence, Leuprolide acetate stimulation); assay type: cell-based; conditions: HEK293 cells stably expressing human GnRHR
# T1 sequence (P30968 whole entry): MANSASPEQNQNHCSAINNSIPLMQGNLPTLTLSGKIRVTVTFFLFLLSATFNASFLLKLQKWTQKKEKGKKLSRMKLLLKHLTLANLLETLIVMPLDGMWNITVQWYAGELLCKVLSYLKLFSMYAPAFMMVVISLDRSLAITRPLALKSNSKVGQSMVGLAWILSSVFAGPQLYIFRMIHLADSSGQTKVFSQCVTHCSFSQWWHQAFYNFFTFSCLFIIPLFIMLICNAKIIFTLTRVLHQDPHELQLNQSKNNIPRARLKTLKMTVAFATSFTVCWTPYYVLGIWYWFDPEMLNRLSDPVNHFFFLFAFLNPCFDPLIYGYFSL
# Method: Cell: HEK293 cells stably expressing human GnRHR (WuXi AppTec (Shanghai) Co., Ltd.) Equipment: 384-well plate, Greiner; Vi-cell XR Cell Viability Analyzer, Beckman Coulter; incubator, Thermo.
# Method: HEK293 cells stably expressing human GnRHR were seeded into a 384-well plate at a density of 20,000/well. Fluo-4 Direct™ No-wash Loading Buffer (Invitrogen) was added to each well the next day, and then the plate was put back into an incubator, incubated at 37° C. for 50 min, and then incubated at room temperature for 10 min. Test compounds were formulated in DMSO. […] Fluorescence values were determined using a FLIPR Tetra high throughput real-time fluorescence detection and assay system. Then 10 μL of Leuprolide acetate was added, and fluorescence values were determined. IC50 and IC90 of the compounds were calculated using Prism.
# [3] = Pituitary tissue distribution in SD rats after intragastric administration; assay type: in vivo; set-up: Plasma concentration / Pituitary concentration: unit not given here; conditions: i.g 12 mg/kg; for Concentration in the pituitary relative to Relugolix: vs Relugolix; for Concentration in the pituitary relative to compound 2A: vs compound 2A
# Method: as §1, §2
# [4] = Caco-2 two-way permeability and efflux; assay type: in vitro ADME; conditions: human; for efflux ratio at 120 min: Caco-2
# Method: (§3) Instrument: water purification equipment, ELGA LabWate; biosafety cabinet, NUAIRE; thermostatic CO2 incubator, Thermo; microplate reader, PerkinElmer; LC-MS/MS, AB SCIEX.
# (§4) Method: A Caco-2 monolayer cell model was used to determine the two-way permeability of the test substances and evaluate whether the test substances were transported by the efflux of a transporter. In the experiment, Caco-2 cells were seeded into a 96-well cell culture plate and cultured for 28 consecutive days for transport assay. The test substances were each administered on two sides. After being incubated for 120 min, the samples at the apical end A, at the basal end B, and with cell lysis were collected and quantitatively determined for the content of the test substances by using a liquid chromatography-tandem mass spectrometry (LC/MS/MS) method. The apparent permeability coefficient (Papp) in the direction from the apical end to the basal end (A-B) and in the direction from the basal end to the apical end (B-A) and the efflux ratio were calculated from the concentrations of the test substances.
# [5] = target: human hERG potassium channel (Homo sapiens (Human), UniProt Q12809); assay: hERG test (QPatch automated patch clamp, CHO cells); assay type: cell-based; conditions: for Inhibitory activity on the human hERG potassium channel compared with Relugolix: in words, vs Relugolix
# human hERG potassium channel, sequence (Q12809 whole entry): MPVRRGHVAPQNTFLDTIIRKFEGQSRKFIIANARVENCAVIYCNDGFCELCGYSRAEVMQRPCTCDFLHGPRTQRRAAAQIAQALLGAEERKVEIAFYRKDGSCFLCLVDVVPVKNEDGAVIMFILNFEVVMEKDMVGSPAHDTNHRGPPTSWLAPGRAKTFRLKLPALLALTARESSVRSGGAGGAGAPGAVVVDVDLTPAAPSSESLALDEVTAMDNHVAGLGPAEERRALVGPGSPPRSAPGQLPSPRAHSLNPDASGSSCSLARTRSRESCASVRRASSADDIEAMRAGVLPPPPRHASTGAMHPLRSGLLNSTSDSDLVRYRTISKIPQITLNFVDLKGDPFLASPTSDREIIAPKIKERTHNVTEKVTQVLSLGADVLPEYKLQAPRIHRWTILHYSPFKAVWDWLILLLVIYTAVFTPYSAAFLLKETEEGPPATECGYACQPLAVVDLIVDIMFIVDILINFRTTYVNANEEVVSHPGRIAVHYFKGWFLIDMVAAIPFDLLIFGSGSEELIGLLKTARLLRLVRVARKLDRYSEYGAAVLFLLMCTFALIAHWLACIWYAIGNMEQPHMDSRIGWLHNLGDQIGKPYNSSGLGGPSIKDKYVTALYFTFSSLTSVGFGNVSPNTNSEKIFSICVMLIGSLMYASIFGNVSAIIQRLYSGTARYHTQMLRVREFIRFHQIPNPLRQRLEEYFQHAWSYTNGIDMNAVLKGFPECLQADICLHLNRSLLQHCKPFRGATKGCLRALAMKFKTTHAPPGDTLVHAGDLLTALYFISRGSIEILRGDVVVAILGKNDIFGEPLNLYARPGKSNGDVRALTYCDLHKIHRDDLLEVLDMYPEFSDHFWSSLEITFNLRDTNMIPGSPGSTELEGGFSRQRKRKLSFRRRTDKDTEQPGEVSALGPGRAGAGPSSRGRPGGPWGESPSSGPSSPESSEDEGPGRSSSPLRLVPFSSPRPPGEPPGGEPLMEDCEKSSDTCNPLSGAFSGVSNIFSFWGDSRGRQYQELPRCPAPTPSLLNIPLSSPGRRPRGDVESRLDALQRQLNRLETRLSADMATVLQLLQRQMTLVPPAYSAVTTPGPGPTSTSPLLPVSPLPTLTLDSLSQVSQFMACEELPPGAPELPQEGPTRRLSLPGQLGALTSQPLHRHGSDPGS
# Method: Cell: CHO cells stably expressing a human hERG potassium channel (WuXi AppTec (Shanghai) Co., Ltd.) Reagent: physiological solution (pH=7.4): 140 mM NaCl, 4 mM KCl, 2 mM CaCl2), 1 mM MgCl2, 5 mM Glucose, 10 mM HEPES, Osmolarity: about 298 mOsm; external solution (pH=7.4): 80 mM NaCl, 4 mM KCl, 2 mM CaCl2), 1 mM MgCl2, 5 mM Glucose, 60 mM NMDG, 10 mM HEPES, Osmolarity: about 289 mOsm; internal solution (pH=7.4): 10 mM NaCl, 10 mM KCl, 110 mM KF, 10 mM HEPES, EGTA: […], Osmolarity: about 280 mOsm.
# Equipment: QPatch high-throughput automated patch clamp system, Sophion.
# Method: CHO cells stably expressing a human hERG potassium channel were digested with TrypLE and resuspended in a physiological solution for later use. The single-cell high-impedance sealing and whole-cell mode formation processes were automatically completed by Qpatch. The clamping voltage for the cells was −80 mV. Then a voltage of −50 mV was applied for 80 ms to subtract (current) leakage, and a voltage of +20 mV was applied for 4800 ms to open the hERG channel. The voltage was then reduced to −50 mV and maintained for 5000 ms. This process was used for data collection and analysis. Finally, the voltage was returned to the clamping voltage (−80 mV, 1000 ms). This process was repeated every 20,000 ms. 40 μL of solvent control (external solution+DMSO) was added first, and the test was performed for […] to collect baseline data. Then, 40 μL of each of the test compounds was added at various concentrations, and the test was performed for no less than […]. The compounds were each dissolved in DMSO, with test concentrations being 0.30 μM, 1.00 μM, 3.00 μM, 10.00 μM, and 30.00 μM. The IC50 data for the hERG test were obtained by analyzing using DataControl, Excel2013, and Prism.
# human GnRHR [6] = target: T1, human GnRHR; assay: In vitro binding screening ([125I][D-Trp6]-LH-RH displacement, Chem-1 cell membranes)
# Method: [D-Trp6]-LH-RH, PerkinElmer; [D-Trp6]-LH-RH, Abcam.
# Equipment: MicroBeta2 LumiJET system, PerkinElmer.
# Method: Chem-1 cell membranes stably expressing human GnRHR were resuspended in HEPES at pH 7.4. […] [D-Trp6]-LH-RH was used in the non-specific binding assay. Cell membranes were collected by filtration under vacuum and washed before liquid scintillation. The binding IC50 and IC90 of the compounds were calculated using Prism.
# [7] = Metabolic stability in rat liver microsomes; assay type: in vitro ADME, SD rat; conditions: Rat liver microsomes
# Method: (§5) Liver Microsome: Rat Liver Microsome and Human Liver Microsome Reagent: NADPH, Roche Diagnostics Gmbh; ACN, Merck Chemical; Tolbutamide, Sigma. Instrument: water purification equipment, Millipore; electronic balance, METTLER TOLEDO; high-speed benchtop centrifuge, Thermo; water bath thermostatic oscillator, Shanghai Yiheng Technical Co., Ltd.; vortex oscillator, Thermo; LC-MS/MS, AB SCIEX. Method: the metabolic stability of test substances was evaluated by using SD rat and human liver microsomes. The test substances were incubated with liver microsomes from different species by using NADPH under a water bath at 37° C. A cold acetonitrile solution containing a Tolbutamide internal standard substance was added at a specified time point to terminate the reaction. The samples were pre-treated and then subjected to semi-quantitative analysis by LC-MS/MS. The retention times of the analytes and Tolbutamide internal standard, the acquisition of chromatograms, and the integration of chromatograms were processed using software Analyst (A Sciex, Framingham, Massachusetts, USA). The in vitro elimination rate constant Ke of the samples was obtained by converting the ratio of the peak area of the samples to the peak area of the internal standard into the residual percentage, and the in vitro clearance rate and the half-life of the test samples were calculated.
# [8] = Metabolic stability in human liver microsomes; assay type: in vitro ADME
# Method: as §5
# Caco-2 cells = assay: Caco-2 two-way permeability and efflux; assay type: in vitro ADME
# Method: as §3, §4
# [9] = male, Sprague-Dawley (SD), rat, plasma, iv, i.v 1 mg/kg
# [10] = male, Sprague-Dawley (SD), rat, plasma, po, i.g 12 mg/kg
# [11] = intragastric group, vs Relugolix
# [12] = intragastric group, vs compound 2A
smiles,measurement,setting,value
CCNC(=O)Nc1ccc(-c2sc3c(c2CN(C)C)c(=O)n(-c2ccc(OC)nn2)c(=O)n3Cc2c(F)cccc2F)cc1 [Compound 2A],AUC(0-t),[1]; [9],487 ± 150 ng·h/mL
same,C0,[1]; [9],521 ± 322 ng/mL
same,MRT last,[1]; [9],4.14 ± 1.83 h
same,half-life,[1]; [9],6.64 ± 3.1 h
same,AUC(0-t),[1]; [10],370 ± 109 ng·h/mL
same,Cmax,[1]; [10],69.9 ± 15.1 ng/mL
same,MRT last,[1]; [10],9.2 ± 2.3 h
same,half-life,[1]; [10],18 ± 15.9 h
same,bioavailability,"[1]; male, Sprague-Dawley (SD), rat, plasma, po",6.33%
same,Tmax,"[1]; male, Sprague-Dawley (SD), rat, plasma, po, i.g 12 mg/kg, read-out: Tmax",0.25 h
same,IC50,human GnRHR [2]; read-out: Functional IC50,1.84 nM
same,IC90,human GnRHR [2]; read-out: Functional IC90,8.19 nM
same,Pituitary concentration,[3]; 1 h,280 ± 80
same,Plasma concentration,[3]; 1 h,32.2 ± 18.0
same,Pituitary concentration,[3]; 4 h,279 ± 70
same,Plasma concentration,[3]; 4 h,13.3 ± 5.1
same,Pituitary concentration,[3]; 12 h,333 ± 90
same,Plasma concentration,[3]; 12 h,5.59 ± 1.55
same,Kp at 1 h,"[3]; male, Sprague-Dawley (SD), rat, pituitary/plasma, oral, 1 h",8.7
same,Kp at 4 h,"[3]; male, Sprague-Dawley (SD), rat, pituitary/plasma, oral, 4 h",21
same,Kp at 12 h,"[3]; male, Sprague-Dawley (SD), rat, pituitary/plasma, oral, 12 h",59.6
same,efflux ratio at 120 min,[4]; read-out: Efflux ratio,1180
same,Papp A→B at 120 min,"[4]; Caco-2, 120 min incubation",0.00816 ×10⁻⁶ cm/s
same,Papp B→A at 120 min,"[4]; Caco-2, 120 min incubation",9.65 ×10⁻⁶ cm/s
same,IC50,[5]; CHO cells stably expressing human hERG potassium channel,6070 nM
same,Inhibitory activity on the human hERG potassium channel compared with Relugolix,[5],equal to or less than that of Relugolix
same,IC90,human GnRHR [6],13.2 nM
same,IC50,"human GnRHR [6]; Chem-1 cell membranes, 0.05 nM [125I]-[D-Trp6]-LH-RH",0.87 nM
CCNC(=O)Nc1ccc(-c2sc3c(c2CN(C)C)c(=O)n(-c2ccc(OC)nn2)c(=O)n3Cc2c(F)cccc2F)cn1 [Compound 2],AUClast relative to Relugolix,[1]; [11],2.45 fold
same,Absolute bioavailability relative to Relugolix,[1]; [11],3.47 fold
same,Cmax relative to Relugolix,[1]; [11],3.63 fold
same,AUClast relative to compound 2A,[1]; [12],0.96 fold
same,Absolute bioavailability relative to compound 2A,[1]; [12],3.14 fold
same,Cmax relative to compound 2A,[1]; [12],1.12 fold
same,bioavailability,"[1]; male, rat, plasma, oral",19.9%
same,Residual content at 60 min,"[7]; NADPH, 37° C.",61.0%
same,CLint scaled,[7]; SD,28.4 mL/min/kg
same,half-life,[7]; SD,1.46 h
same,microsomal CLint,"[7]; SD, read-out: CLint(mic)",15.8 µL/min/mg
same,Pituitary concentration,[3]; 1 h,2250 ± 474
same,Pituitary/plasma,[3]; 1 h,56.9
same,Plasma concentration,[3]; 1 h,39.5 ± 14.0
same,Concentration in the pituitary relative to Relugolix,[3]; 1 h,2.38 fold
same,Concentration in the pituitary relative to compound 2A,[3]; 1 h,8.04 fold
same,Pituitary concentration,[3]; 4 h,1841 ± 636
same,Pituitary/plasma,[3]; 4 h,80.8
same,Plasma concentration,[3]; 4 h,22.8 ± 2.5
same,Concentration in the pituitary relative to Relugolix,[3]; 4 h,1.48 fold
same,Concentration in the pituitary relative to compound 2A,[3]; 4 h,6.60 fold
same,Pituitary concentration,[3]; 12 h,1254 ± 494
same,Pituitary/plasma,[3]; 12 h,129
same,Plasma concentration,[3]; 12 h,9.70 ± 3.10
same,Concentration in the pituitary relative to Relugolix,[3]; 12 h,2.46 fold
same,Concentration in the pituitary relative to compound 2A,[3]; 12 h,3.77 fold
same,CLint scaled,[8],4.86 mL/min/kg
same,half-life,[8],4.28 h
same,Residual content at 60 min,"[8]; NADPH, 37° C.",83.8%
same,microsomal CLint,[8]; read-out: CLint(mic),5.4 µL/min/mg
same,Efflux ratio,Caco-2 cells; Caco-2,294
same,Mean Papp A to B,"Caco-2 cells; Caco-2, 120 min incubation",0.0142 10^−6 cm/s
same,Mean Papp B to A,"Caco-2 cells; Caco-2, 120 min incubation",4.19 10^−6 cm/s
same,efflux ratio at 120 min,[4],~6
same,Inhibitory activity on the human hERG potassium channel compared with Relugolix,[5],equal to or less than that of Relugolix
